These results are taken from a melting point compilation (Tetko et al.; mined from patent text by program, amines drawn as free bases though some values may be those of a salt).

The structures appear in SMILES notation. Bounds are passed on as bounds.

The molecule `Cc1cc(=S)cc(C)n1CCNC(=O)OC(C)(C)C` had a melting point of 175 to 178 °C.
Then `Oc1cc(C(F)(F)F)nc2cccc(C(F)(F)F)c12`, with 314 to 315 °C; and `C=CCN(C(C)=O)c1cccc(-c2ccc3nnc(C)n3n2)c1`, with 114 to 115 °C.
Then `Cc1cc(F)ccc1-c1nc(-c2cn(N)c(=O)[nH]c2=O)nc2c1ccc(=O)n2-c1c(F)cccc1F`, with > 300 °C; and `O=C(CCNc1c(C(=O)O)[nH]c2cc(Cl)cc(Cl)c12)c1ccc(Cl)cc1`, with 279 to 283 °C.
Then `c1ccc(C2=NN=C(c3ccccc3)NN2)cc1`, with 177 to 178 °C; and `O=C(C=Cc1cccc(S(=O)(=O)NCc2ccco2)c1)NO`, with 165 °C; and `COc1cc(C(=O)NS(=O)(=O)c2ccccc2Cl)ccc1Cc1cn(C)c2ccc(CCNC(=O)N(C)C)cc12`, with 208 to 211 °C.
Take `CCOC(=O)c1cc(OC2CCCCC2=O)[nH]n1` (centres undefined): the melting point lay within 122 to 124 °C.
For `CNC(=O)NN(CC(=O)OC)c1ccccc1`, the melting point worked out at 122 °C.
Then `CCOC(Cc1ccc2oc(CN3c4ccccc4Sc4ccccc43)cc2c1)C(=O)O` (centres undefined), with 120 to 121 °C; and `CO[C@H]1C(=O)N(S(C)(=O)=O)[C@H]2CCN(C(=O)OCc3ccccc3)[C@H]12` (relative stereo), with 146 to 149 °C; and `CC(C)(C)OC(=O)c1ncn2c1CN(C(=O)N1CCOCC1)c1cc(F)ccc1-2`, with 196 °C.
The same measure for `NNC1=NC(=O)C(=Cc2cccc(-c3cc(F)c(O)c(C45CC6CC(CC(C6)C4)C5)c3)c2)S1`: 303 to 308 °C.
Then `Oc1ccc2c(c1)COc1c-2cc2ccc(O)cc2c1-c1ccsc1`, with 159 to 161 °C; and `CN1CCC(NC(=O)c2cccc3nc(-c4ccccc4)oc23)CC1`, with 209 to 210 °C.
Turning to `O=C(CN1CC(S(=O)Cc2ccc(C(=O)O)cc2)C1=O)NCCCCCCc1ccc(Cl)cc1` (centres undefined), the melting point lay in the range of 195 to 197 °C.
The same measure for `CCCc1c(OC(C(=O)OCC)c2ccc(Cl)c(Cl)c2)ccc(C(C)=O)c1O` (centres undefined): 77 to 79 °C; for `O=c1ccn(C2CC(O)C(CNC(c3ccccc3)(c3ccccc3)c3ccccc3Cl)O2)c(=O)[nH]1` (centres undefined): 129 to 131 °C; for `CNc1nc(-c2ccc(Cl)cc2)c(CCC(=O)O)o1`: 217 to 218 °C.
The same measure for `CON=C(C(=O)O)c1nc(N)c(Cl)cc1Cl`: 139 to 144 °C; for `Cc1cn(-c2c(F)cc3c(=O)c(C(=O)O)cn(C4CC4)c3c2F)cn1`: 215 to 223 °C; for `COc1cc(N)c(Cl)cc1C(=O)NCC1CCCN1C1CCCCC1` (centres undefined): 123 to 124 °C.
For the molecule `CCCCNC(=O)Nc1ccc(C)cc1`, the melting point lay within 118 to 119 °C.
In turn, `CCCCOc1ccc(C(=O)Nc2ccc3cc(CN4CCCC4CC(C)C)cnc3c2C)cc1` (centres undefined) yielded a melting point of 128 to 130 °C.
`COC(=O)Cc1c(C)nc(SC)nc1O` gave a melting point of 200 °C.
With `Cc1cccc(-c2cc(=O)c(C)c(-c3ccccc3)n2-c2ccccc2F)c1`, the melting point was in the range of 211 to 214 °C.
Then `CCN1c2ncc(CSc3ncnc4[nH]ncc34)cc2C(=O)N(C)c2ccc(Cl)nc21`, with 128 to 130 °C; and `COc1ccc2nc3ccc(C(N)=O)cn3c(=O)c2c1`, with > 310 °C; and `O=C(Nc1ccc([N+](=O)[O-])cc1O)NC(c1ccccc1)c1ccccc1`, with 237 to 238 °C.
Then `CC(CCl)NC(=O)c1c(Cl)cccc1[Si](C)(C)C` (centres undefined), with 150 to 151 °C.
The same measure for `COc1cccc(CCNc2nc(N)n3nc(-c4ccco4)nc3n2)c1`: 172 to 174 °C.
`CCCCCCCCCCCOc1ccc(C(=O)O)cc1OCCCCCCCCCCC` yielded a melting point of 98 to 101 °C.
`CCCOC1=NS(=O)(=O)N(C)C(Oc2ccc([N+](=O)[O-])cc2)=N1`: the melting point was in the range of 129 to 131 °C.

One may read the melting point as the temperature, or range, at which the solid turns liquid.
